# Data from US20250230193A1, “CYCLIC COMPOUND HAVING SELECTIVE KRAS INHIBITORY EFFECT ON HRAS AND NRAS” (CHUGAI SEIYAKU KABUSHIKI KAISHA, priority 2022, published 2025).
# Read-outs that look alike come from different tables or passages of the source. *1 amine or outer side, *2 acyl side, *3 side chain or, on linkers, in order; H or OH if unused. Where a SMILES comes first, the peptide text is derived from it. Bridges are numbered along the chain shown (N, C = ends). [ ]: non-standard residue; d: D form. The star is where a group is joined. hPhe(3,5-F2-4-CF3) = N[C@@H](CCc1cc(F)c(C(F)(F)F)c(F)c1)C(=O)O; NPrPhe(4-CF3) = CCCN[C@@H](Cc1ccc(C(F)(F)F)cc1)C(=O)O; X1 = CN([C@@H](CCCC=[*:3])C(=O)[*:2])[*:1]; X2 = C[C@@](CC=[*:3])(N[*:1])C(=O)[*:2]; NMeGly(cPent) = CN[C@H](C(=O)O)C1CCCC1; Hyp = O=C(O)[C@@H]1C[C@@H](O)CN1; NMeD = CN[C@@H](CC(=O)O)C(=O)O; Morpholide = C1CN(*)CCO1; Sar = CNCC(=O)O
# Legend:
# [1] = tested on: human lung cancer strain NCI-H441
# [2] = target: GDP-bound HRAS wild-type protein (Homo sapiens, UniProt P01112); experiment: Binding to HRAS by surface plasmon resonance (SPR), Single Cycle Kinetics; details: SPR; for HRAS/KRAS (ratio of KD value for GDP-bound HRAS wild-type protein to KD value for KRAS): KD ratio class
# [3] = target: GDP-bound NRAS wild-type protein (Homo sapiens, UniProt P01111); experiment: Binding to NRAS by surface plasmon resonance (SPR), Single Cycle Kinetics; details: SPR; for NRAS/KRAS (ratio of KD value for GDP-bound NRAS wild-type protein to KD value for KRAS): KD ratio class
# [4] = target: GDP-bound KRAS wild-type protein (Homo sapiens, UniProt P01116); experiment: Binding to KRAS by surface plasmon resonance (SPR), Single Cycle Kinetics; details: GDP-bound KRAS wild-type protein
# [5] = read-out: NCI-H441 IC50, NCI-H441 cells, 4 days, CellTiter-Glo
# [6] = KD ratio, GDP-bound HRAS wild-type vs GDP-bound KRAS wild-type
# [7] = KD ratio, GDP-bound NRAS wild-type vs GDP-bound KRAS wild-type
# Sequence of GDP-bound HRAS wild-type protein (P01112 whole entry): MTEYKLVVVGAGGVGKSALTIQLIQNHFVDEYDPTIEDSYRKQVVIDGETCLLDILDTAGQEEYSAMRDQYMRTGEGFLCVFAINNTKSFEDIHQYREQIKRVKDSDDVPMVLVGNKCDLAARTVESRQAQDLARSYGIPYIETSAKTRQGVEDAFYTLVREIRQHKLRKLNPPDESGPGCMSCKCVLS
# Sequence of GDP-bound NRAS wild-type protein (P01111 whole entry): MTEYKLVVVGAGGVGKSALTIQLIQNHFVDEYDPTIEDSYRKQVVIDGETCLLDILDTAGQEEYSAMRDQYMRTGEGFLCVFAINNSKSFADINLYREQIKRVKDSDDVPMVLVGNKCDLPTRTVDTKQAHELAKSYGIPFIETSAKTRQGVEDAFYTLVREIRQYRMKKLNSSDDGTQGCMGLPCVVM
Structure (SMILES),"IC50 [1, 5] [nM]",HRAS/KRAS (ratio of KD value for GDP-bound HRAS wild-type protein to KD value for KRAS) [2],NRAS/KRAS (ratio of KD value for GDP-bound NRAS wild-type protein to KD value for KRAS) [3],"Kd ([4]; SPR, Single Cycle Kinetics) [nM]",IC50 [1] [nM],"HRAS/KRAS (ratio of KD value for HRAS to KD value for KRAS) [2, 6]","NRAS/KRAS (ratio of KD value for NRAS to KD value for KRAS) [3, 7]","Kd ([4]; SPR Single Cycle Kinetics, 1:1 binding model) [nM]","HRAS/KRAS (ratio of KD value with respect to HRAS to KD value with respect to KRAS) [2, 6]","NRAS/KRAS (ratio of KD value with respect to NRAS to KD value with respect to KRAS) [3, 7]"
CCO[C@@H]1C[C@H]2C(=O)NC3(CC(F)(F)C3)C(=O)N(C)[C@@H](C3CCCC3)C(=O)N(C)C(C3CCCCC3)CC(=O)N(C)[C@@H](COC)C(=O)N[C@@H]([C@@H](C)CC)C(=O)N(C)CC(=O)N(C)[C@H]3C/C=C\CCN(C3=O)[C@@H](Cc3ccc(C(F)(F)F)cc3)C(=O)N(C)CC(=O)N[C@@H](CCc3cc(F)c(C(F)(F)F)c(F)c3)C(=O)N2C1 (stereo partly shown) [PP1586],85.5,A (a compound having 10 or more and less than 20 is denoted as A),A (a compound having 10 or more and less than 20 is denoted as A),0.76,,,,,,
CC[C@H](C)[C@@H]1NC(=O)[C@H](CC)N(C)C(=O)C[C@@H](C(=O)N(C)C)N(C)C(=O)[C@H](C2CCCC2)N(C)C(=O)C2(CCC2)NC(=O)[C@@H]2C[C@@H](C(F)(F)F)CN2C(=O)[C@H](CCc2cc(F)c(C(F)(F)F)c(F)c2)NC(=O)CN(C)C(=O)[C@H](CC2CCC(F)(F)CC2)N2CC/C=C\C[C@@H](C2=O)N(C)C(=O)CN(C)C1=O [PP1451],61.1,A (a compound having 10 or more and less than 20 is denoted as A),A (a compound having 10 or more and less than 20 is denoted as A),0.14,,,,,,
CCO[C@@H]1C[C@H]2C(=O)NC3(CCC3)C(=O)N(C)[C@@H](C3CCCC3)C(=O)N(C)[C@H](C(=O)N3CCCC3)CC(=O)N(C)[C@@H](CC)C(=O)N[C@@H]([C@@H](C)CC)C(=O)N(C)CC(=O)N(C)[C@H]3C/C=C\CCN(C3=O)[C@@H](CC3CCC(F)(F)CC3)C(=O)N(C)CC(=O)N[C@@H](CCc3cc(F)c(C(F)(F)F)c(F)c3)C(=O)N2C1 [PP1442],48.3,A (a compound having 10 or more and less than 20 is denoted as A),A (a compound having 10 or more and less than 20 is denoted as A),0.13,,,,,,
CC[C@H](C)[C@@H]1NC(=O)[C@H](CC)N(C)C(=O)C[C@@H](C(=O)N(C)C)N(C)C(=O)[C@H](C2CCCC2)N(C)C(=O)C2(CCC2)NC(=O)[C@@H]2CC(F)(F)CN2C(=O)[C@H](CCc2cc(F)c(C(F)(F)F)c(F)c2)NC(=O)CN(C)C(=O)[C@H](CC2CCCCC2)N2CC/C=C\C[C@@H](C2=O)N(C)C(=O)CN(C)C1=O [PP1462],27.5,A (a compound having 10 or more and less than 20 is denoted as A),A (a compound having 10 or more and less than 20 is denoted as A),0.12,,,,,,
CCO[C@@H]1C[C@H]2C(=O)NC3(CCC3)C(=O)N(C)[C@@H](C3CCCC3)C(=O)N(C)[C@H](C(=O)N(C)C)CC(=O)N(C)[C@@H](CC3CC3)C(=O)N[C@@H]([C@@H](C)CC)C(=O)N(C)CC(=O)N(C)[C@H]3C/C=C\CCN(C3=O)[C@@H](Cc3ccc(C)cc3)C(=O)N(C)CC(=O)N[C@@H](CCc3cc(F)c(C(F)(F)F)c(F)c3)C(=O)N2C1 [PP1407],18.7,A (a compound having 10 or more and less than 20 is denoted as A),A (a compound having 10 or more and less than 20 is denoted as A),0.074,,,,,,
CC[C@H](C)[C@@H]1NC(=O)[C@H](CC2CC2)N(C)C(=O)C[C@@H](C(=O)N2CCCC2)N(C)C(=O)[C@H](C2CCCC2)N(C)C(=O)C2(CCC2)NC(=O)[C@@H]2C[C@H](C)CN2C(=O)[C@H](CCc2cc(F)c(C(F)(F)F)c(F)c2)NC(=O)CN(C)C(=O)[C@H](Cc2ccc(C(F)(F)F)cc2)N2CC/C=C\C[C@@H](C2=O)N(C)C(=O)CN(C)C1=O [PP1510],34.5,A (a compound having 10 or more and less than 20 is denoted as A),AA (a compound having 20 or more is denoted as AA),0.11,,,,,,
C=CC[C@H]1C(=O)N[C@@H]([C@@H](C)CC)C(=O)N(C)CC(=O)N(C)[C@H]2C/C=C\CCN(C2=O)[C@@H](CC2CCC(F)(F)CC2)C(=O)N(C)CC(=O)N[C@@H](CCc2cc(F)c(C(F)(F)F)c(F)c2)C(=O)N2C[C@H](OCC)C[C@H]2C(=O)NC2(CCC2)C(=O)N(C)[C@@H](C2CCCC2)C(=O)N(C)[C@H](C(=O)N(C)C)CC(=O)N1C [PP1454],15.2,A (a compound having 10 or more and less than 20 is denoted as A),A (a compound having 10 or more and less than 20 is denoted as A),0.096,,,,,,
CCO[C@@H]1C[C@H]2C(=O)NC3(CCC3)C(=O)N(C)[C@@H](C3CCCC3)C(=O)N(C)[C@H](C(=O)N(C)CC)CC(=O)N(C)[C@H]3CCCC/C=C/c4ccc(cc4)C[C@@H](C(=O)N(C)CC(=O)N[C@@H](CCc4ccc(C(F)(F)F)c(OC)c4)C(=O)N2C1)N1CC/C=C\C[C@@H](C1=O)N(C)C(=O)CN(C)C(=O)[C@H]([C@@H](C)CC)NC3=O [PP1828],,,,,1.9,B (a compound having 3 or more and less than 10 is denoted as B),A (a compound having 10 or more and less than 20 is denoted as A),0.039,,
CCO[C@@H]1C[C@H]2C(=O)NC3(CCCC3)C(=O)N(C)[C@@H](C3CCCC3)C(=O)N(C)[C@H](C(=O)N(C)C)CC(=O)N(C)[C@@H](CC)C(=O)N[C@@H]([C@@H](C)CC)C(=O)N(C)CC(=O)N(C)[C@H]3C/C=C\CCN(C3=O)[C@@H](Cc3ccc(C(F)(F)F)cc3)C(=O)N(C)CC(=O)N[C@@H](CCc3cc(F)c(C(F)(F)F)c(F)c3)C(=O)N2C1 [PP1276],20.8,B (a compound having 3 or more and less than 10 is denoted as B),A (a compound having 10 or more and less than 20 is denoted as A),0.066,,,,,,
"CCCN1C(=O)CN(C)C(=O)CN(C)C(=O)[C@H]([C@@H](C)CC)NC(=O)[C@@H]2CCC/C=C\C[C@](C)(NC(=O)[C@@H]3C[C@@H](OCC)CN3C(=O)[C@H](CCc3cc(F)c(C(F)(F)F)c(F)c3)NC(=O)CN(C)C(=O)[C@@H]1Cc1ccc(C(F)(F)F)cc1)C(=O)N(C)[C@@H](C1CCCC1)C(=O)N(C)[C@H](C(=O)N1CCOCC1)CC(=O)N2C [PP0901] ([X1]I[Sar][Sar][NPrPhe(4-CF3)][Sar][hPhe(3,5-F2-4-CF3)][Hyp](Et)[X2][NMeGly(cPent)][NMeD]-Morpholide; staple (Z) 1-9; lactam N-11)",,,,3,332,,,,B (a compound having 3 or more and less than 10 is denoted as B),B (a compound having 3 or more and less than 10 is denoted as B)
CCC[C@H]1C(=O)N[C@@H]([C@@H](C)CC)C(=O)N(C)CC(=O)N(C)[C@H]2C/C=C\CCN(C2=O)[C@@H](CC2CCC(F)(F)CC2)C(=O)N(C)CC(=O)N[C@@H](CCc2cc(F)c(C(F)(F)F)c(F)c2)C(=O)N2C[C@H](OCC)C[C@H]2C(=O)NC2(CCC2)C(=O)N(C)[C@@H](C2CCCC2)C(=O)N(C)[C@H](C(=O)N(C)C)CC(=O)N1C [PP1450],50.1,A (a compound having 10 or more and less than 20 is denoted as A),A (a compound having 10 or more and less than 20 is denoted as A),0.14,,,,,,
CCO[C@@H]1C[C@H]2C(=O)NC3(CCC3)C(=O)N(C)[C@@H](C(CC)CC)C(=O)N(C)C(C(C)C)CC(=O)N(C)[C@@H](CC3CC3)C(=O)N[C@@H]([C@@H](C)CC)C(=O)N(C)CC(=O)N(C)[C@H]3C/C=C\CCN(C3=O)[C@@H](Cc3ccc(C(F)(F)F)cc3)C(=O)N(C)CC(=O)N[C@@H](CCc3cc(F)c(C(F)(F)F)c(F)c3)C(=O)N2C1 (stereo partly shown) [PP1595],64.6,A (a compound having 10 or more and less than 20 is denoted as A),A (a compound having 10 or more and less than 20 is denoted as A),2.3,,,,,,
CCCC[C@H]1C(=O)N[C@@H]([C@@H](C)CC)C(=O)N(C)CC(=O)N(C)[C@H]2C/C=C\CCN(C2=O)[C@@H](Cc2ccc(C(F)(F)F)cc2)C(=O)N(C)CC(=O)N[C@@H](CCc2cc(F)c(C(F)(F)F)c(F)c2)C(=O)N2C[C@H](OCC)C[C@H]2C(=O)NC2(CCCC2)C(=O)N(C)[C@@H](C2CCCC2)C(=O)N(C)[C@H](C(=O)N(C)C)CC(=O)N1C [PP1397],3.7,A (a compound having 10 or more and less than 20 is denoted as A),A (a compound having 10 or more and less than 20 is denoted as A),0.073,,,,,,
